Data: paper PMC7764601 (Molecules, 2020)
Like-named read-outs stand apart in the source and are kept apart here. Marks after values point to notes of the source that are not given here.

Tests used:
[1] = test system: mice; design: method as in PMID 11234340, PMID 12484538, PMID 15652370; conditions: cited from earlier work; for % Inh. of locomotor activity: series 1; for ED50, influence on the locomotor activity: imides described previously (series 1)
[2] = test system: mice; conditions: compounds obtained previously (series 1 and 2); cited from earlier work
[3] = test system: mice; design: method as in PMID 11234340, PMID 12484538, PMID 15652370; conditions: series 1, cited from earlier work
[4] = test system: mice; assay: “Writhing” test in mice (phenylbenzoquinone); type: in vivo; conditions: for ED50: Mus musculus, ip, read-out: ED50 (mg/kg) ± SEM, writhing test
Procedure: (§1) The experiments were carried out on male albino Swiss mice (body weight 18–26 g). All of the animals were housed at constant humidity (60%) and temperature (25 °C) and kept on a 12 h light/dark cycle. Animals were fed a standard pellet diet with free access to tap water. All procedures were conducted according to Animal Care and Use Committee guidelines, and approved by the Ethical Committee of Jagiellonian University, Kraków.
(§2) Control and experimental groups consisted of 6–8 animals each. The investigated compounds were administered intraperitoneally as a suspension in 0.5% methylcellulose in a constant volume of 10 mL/kg.
(§3) The statistical significance was calculated using a Student’s t-test. The ED50 values and their confidence limits were calculated according to the method of Litchfield and Wilcoxon.
(§4) Pain reactivity was measured in two tests: “hot plate” test (according to the method of Eddy and Leimbach) and “writhing” test in mice (according to Hendershot and Forsaith).
Then, after 25 min, the irritant (phenylbenzoquinone, 0.02% solution, ethanol-water, 5:95) was also administered intraperitoneally in a constant volume of 0.25 mL. Five min after the application of the irritant,a 10 min long period of observation started, in which the number of writhing episodes was counted.
The analgesic effect of individual doses was expressed in percent:(1) % Analgesic effect=100−∑ of writing incidents in experimental group/∑ of writhing incidents in control group×100

[5] = in vivo; type: in vivo; conditions: male, albino Swiss, mouse, in vivo, ip; mice, intraperitoneal, mortality after 24 h; confidence limits in parentheses
Procedure: as §1, §2

[6] = test system: mice; assay: Spontaneous locomotor activity in mice (photoresistor actometers); type: in vivo; conditions: for ED50 / inhibition at 25 mg/kg / inhibition at 50 mg/kg / inhibition at 100 mg/kg / inhibition at 200 mg/kg: Mus musculus, ip; for ED50: confidence limits in parentheses, read-out: ED50 (mg/kg) ± SEM, spontaneous locomotor activity; for inhibition at 25 mg/kg / inhibition at 50 mg/kg / inhibition at 100 mg/kg / inhibition at 200 mg/kg: read-out: Degree of motor inhibition (%); for Number of impulses ± SEM (30min): i.p.
Procedure: as §1, §2
Spontaneous locomotor activity in mice was measured in circular photoresistoractometers (32 cm in diameter). […] Thirty minutes after the injection of the investigated compounds, mice were placed in the actometers for 30 min. Each crossing of the light beam was recorded automatically. The amount of impulses was noted after 30 min.

[7] = test system: mice; assay: “Hot plate” test in mice; type: in vivo; conditions: for ED50: read-out: ED50, hot plate test
Procedure: as §1, §2, §3, §4
Animals were placed individually on the metal plate, heated to 55 ± 1 °C. The latency time (s) to the pain reaction (licking of the hind paws or jumping) was recorded by a stop-watch. A cutoff time of 45 s was used to prevent tissue damage.

[8] = confidence limits in parentheses
[9] = Mus musculus, ip, 0.5 h, hot plate, mice, dose 200 mg/kg, read-out: Prolonged Time (%)
[10] = hot plate, mice, dose 100 mg/kg
[11] = hot plate, mice, dose 200 mg/kg
[12] = Mus musculus, ip, 0.5 h, hot plate, mice, dose 100 mg/kg, read-out: Prolonged Time (%)
[13] = Mus musculus, ip, 0.5 h, read-out: Prolonged Time (%)

| SMILES | ED50, writhing test [2] [mg/kg] | Thiopental Anesthesia % Prolong. ([3]; dose 50 mg/kg) [%] | ED50 [4, 8] [mg/kg] | Mean no. of writhing ± SEM ([4]; i.p., dose 12.5 mg/kg) | Mean no. of writhing ± SEM ([4]; i.p., dose 25 mg/kg) | Mean no. of writhing ± SEM ([4]; i.p., dose 50 mg/kg) | Mean no. of writhing ± SEM ([4]; i.p., dose 100 mg/kg) | LD50 at 24 h [5] [mg/kg] | ED50 [6] [mg/kg] | inhibition at 50 mg/kg ([6]; dose 50 mg/kg) [%] | inhibition at 100 mg/kg ([6]; dose 100 mg/kg) [%] | inhibition at 200 mg/kg ([6]; dose 200 mg/kg) [%] | Number of impulses ± SEM (30min) ([6]; dose 50 mg/kg) | Number of impulses ± SEM (30min) ([6]; dose 100 mg/kg) | Number of impulses ± SEM (30min) ([6]; dose 200 mg/kg) | change in vivo at 200 mg/kg [7, 9] [%] | Time of Reaction to Pain Stimulus (s) ± SEM [7, 10] [s] | Time of Reaction to Pain Stimulus (s) ± SEM [7, 11] [s] | also measured |
| --- | --- | --- | --- | --- | --- | --- | --- | --- | --- | --- | --- | --- | --- | --- | --- | --- | --- | --- | --- |
| COc1ccccc1N1CCN(CN2C(=O)c3cc(C)nc(OC)c3C2=O)CC1 [Compound 1L] | 6.53 | 184.3 | – | – | – | – | – | – | – | – | – | – | – | – | – | – | – | – | % Inh. of locomotor activity ([1]; dose 12.5 mg/kg): 37.81%; % Inh. of locomotor activity ([1]; dose 25 mg/kg): 40.84%; % Inh. of locomotor activity ([1]; dose 50 mg/kg): 68.25%; ED50, influence on the locomotor activity [1]: 25.2 mg/kg; Thiopental Anesthesia % Prolong. ([3]; dose 12.5 mg/kg): 111.6%; Thiopental Anesthesia % Prolong. ([3]; dose 25 mg/kg): 133.2% |
| COc1ccccc1N1CCN(CCCCN2C(=O)c3cc(C)nc(OC)c3C2=O)CC1 [Compound 1R] | 6.8 | 159.12 | – | – | – | – | – | – | – | – | – | – | – | – | – | – | – | – | % Inh. of locomotor activity ([1]; dose 100 mg/kg): 82.32 ** %; Thiopental Anesthesia % Prolong. ([3]; dose 100 mg/kg): 255.97% |
| COc1nc(C)cc2c1C(=O)N(CN1CCN(c3ccccc3Cl)CC1)C2=O [Compound 15] | – | – | 19.2 ± 2.14 | 17.2 ± 3.2 | 9.4 ± 2.2 | 2.9 ± 1.9 | 1.4 ± 0.4 | > 2000 | 89.1 ± 4.46 | 42.6 | 54 | 65.5 | 253 ± 48 | 203 ± 39 | 152 ± 34 | 15.7 | 17.0 ± 2.8 | 19.9 ± 3.9 | inhibition at 25 mg/kg ([6]; dose 25 mg/kg): 9.52%; Number of impulses ± SEM (30min) ([6]; dose 25 mg/kg): 399 ± 71 |
| COc1nc(C)cc2c1C(=O)N(CN1CCN(c3cccc(Cl)c3)CC1)C2=O [Compound 13] | – | – | 14.8 | 14.1 ± 1.0 | 5.9 ± 0.8 | 3.8 ± 1.9 | 0.8 ± 0.1 | > 2000 | 164 ± 28.7 | 7.93 | 32.2 | 59.6 | 406 ± 34 | 299 ± 49 | 178 ± 32 | 11.6 | 17.9 ± 2.4 | 19.2 ± 1.8 | change in vivo at 100 mg/kg [7, 12]: 4.07% |
| CC(=O)Oc1ccccc1C(=O)O [ASA, Acetylicacid, reference compound] | – | – | 39.1 | – | – | 8.5 ± 1.3 | 3.2 ± 1.1 | – | – | – | – | – | – | – | – | – | 16.2 ± 4.9 | 19.6 ± 4.1 | Mean no. of writhing ± SEM ([4]; i.p., dose 30 mg/kg): 11.2 ± 2.1; change in vivo at 100 mg/kg [7, 13]: 11.7%; change in vivo at 200 mg/kg [7, 13]: 35.2%; change in vivo at 400 mg/kg [7, 13]: 116%; ED50 ([7]; Mus musculus): 267 mg/kg; Time of Reaction to Pain Stimulus (s) ± SEM ([7]; hot plate, mice, dose 400 mg/kg): 31.3 ± 1.2 s |
| COc1nc(C)cc2c1C(=O)N(CCCCN1CCN(c3ccccc3)CC1)C2=O [Compound 1P] | 4.5 | 140.25 | – | – | – | – | – | – | – | – | – | – | – | – | – | – | – | – | % Inh. of locomotor activity ([1]; dose 50 mg/kg): 67.14%; % Inh. of locomotor activity ([1]; dose 100 mg/kg): 86.10%; Thiopental Anesthesia % Prolong. ([3]; dose 100 mg/kg): 242.13% |
| CCOc1nc(C)cc2c1C(=O)N(CN1CCN(c3cccc(Cl)c3)CC1)C2=O [Compound 14] | – | – | 18.4 | 15.1 ± 4.2 | 9.1 ± 0.8 | 5.9 ± 1.9 | 1.8 ± 0.3 | > 2000 | 98 ± 13.3 | 3.5 | 52.4 | 66 | 280 ± 46 | 210 ± 40 | 150 ± 48 | 16.8 | 17.6 ± 2.4 | 20.1 ± 2.3 | inhibition at 25 mg/kg ([6]; dose 25 mg/kg): 10.7%; Number of impulses ± SEM (30min) ([6]; dose 25 mg/kg): 394 ± 70; change in vivo at 100 mg/kg [7, 12]: 2.32% |
| CCOc1nc(C)cc2c1C(=O)N(CCN1CCN(c3ccccc3OC)CC1)C2=O [Compound 12] | – | – | 14.9 ± 2.01 | 13.9 ± 2.3 | 9.7 ± 1.1 | 2.4 ± 0.3 | 1.9 ± 0.4 | > 2000 | 85 ± 4.2 | 34.5 | 59.2 | 76.2 | 289 ± 72 | 180 ± 41 | 105 ± 48 | 52.3 | 22.1 ± 2.7 | 26.2 ± 3.1 | inhibition at 25 mg/kg ([6]; dose 25 mg/kg): 11.8%; Number of impulses ± SEM (30min) ([6]; dose 25 mg/kg): 389 ± 54; change in vivo at 100 mg/kg [7, 12]: 28.5% |
| COc1nc(C)cc2c1C(=O)N(CN1CCOCC1)C2=O [Compound 1Q] | 13.66 | – | – | – | – | – | – | – | – | – | – | – | – | – | – | – | – | – | % Inh. of locomotor activity ([1]; dose 44 mg/kg): 42.65 * %; Thiopental Anesthesia % Prolong. ([3]; dose 44 mg/kg): 141.7 ** % |
| COc1nc(C)cc2c1C(=O)N(CN1CCN(c3ccccc3)CC1)C2=O [Compound 1K] | 2.55 | – | – | – | – | – | – | – | – | – | – | – | – | – | – | – | – | – | % Inh. of locomotor activity ([1]; dose 2.25 mg/kg): 49.23%; % Inh. of locomotor activity ([1]; dose 4.5 mg/kg): 61.77%; ED50, influence on the locomotor activity [1]: 2.28 mg/kg; Thiopental Anesthesia % Prolong. ([3]; dose 2.25 mg/kg): 134.1%; Thiopental Anesthesia % Prolong. ([3]; dose 4.5 mg/kg): 199.1% |
| COc1nc(C)cc2c1C(=O)N(CCCCN1CCc3ccccc3C1)C2=O [Compound 1N] | 0.72 | – | – | – | – | – | – | – | – | – | – | – | – | – | – | – | – | – | % Inh. of locomotor activity ([1]; dose 46 mg/kg): 87.48 * %; Thiopental Anesthesia % Prolong. ([3]; dose 23 mg/kg): 100.0%; Thiopental Anesthesia % Prolong. ([3]; dose 46 mg/kg): 286.5% |
| COc1nc(C)cc2c1C(=O)N(CCCN1CCN(c3ccccc3)CC1)C2=O [Compound 1H] | 1.03 | 194 | – | – | – | – | – | – | – | – | – | – | – | – | – | – | – | – | % Inh. of locomotor activity ([1]; dose 12.5 mg/kg): 47.67%; % Inh. of locomotor activity ([1]; dose 25 mg/kg): 53.84%; % Inh. of locomotor activity ([1]; dose 50 mg/kg): 66.55%; ED50, influence on the locomotor activity [1]: 15.17 mg/kg; Thiopental Anesthesia % Prolong. ([3]; dose 25 mg/kg): 118% |
| CN1CC[C@]23c4c5ccc(O)c4O[C@H]2[C@@H](O)C=C[C@H]3[C@H]1C5 [Morphine, reference compound] | – | – | – | – | – | – | – | – | – | – | – | – | – | – | – | – | – | – | ED50 (mg/kg) ± SEM, writhing test ([4]; i.p., confidence limits in parentheses): 2.44 mg/kg; Mean no. of writhing ± SEM ([4]; i.p., dose 1 mg/kg): 16.2 ± 3.51; Mean no. of writhing ± SEM ([4]; i.p., dose 3 mg/kg): 7.5 ± 2.9; Mean no. of writhing ± SEM ([4]; i.p., dose 10 mg/kg): 1.2 ± 0.8; change in vivo at 1 mg/kg [7, 13]: 33.8%; change in vivo at 3 mg/kg [7, 13]: 104%; change in vivo at 6 mg/kg [7, 13]: 111%; ED50 ([7]; Mus musculus): 2.55 mg/kg; Time of Reaction to Pain Stimulus (s) ± SEM ([7]; hot plate, mice, dose 1 mg/kg): 19.4 ± 2.1 s; Time of Reaction to Pain Stimulus (s) ± SEM ([7]; hot plate, mice, dose 3 mg/kg): 29.6 ± 6 s; Time of Reaction to Pain Stimulus (s) ± SEM ([7]; hot plate, mice, dose 6 mg/kg): 30.6 ± 3.9 s |
